Experimental data taken from patent publication US20230104487A1, “11-(4-CHLOROPHENYL)-4-(2,3-DIHYDRO-1H-INDOLE-1-CARBONYL)-3,11-DIMETHYL-5,10,DIOXATRICYCLO[7.4.0.0,2,6,]TRIDECA-1,3,6,8-TETRAEN-13-ONE AND DERIVATIVES AS DESTABILIZER OF CRY1 FOR THE TREATMENT OF CIRCADIAN RHYTHM ASSOCIATED DISEASES AND DISORDERS” (KOC UNIVERSITESI, priority 2019, published 2023).
“Also recorded” adds a separate entry of the source.

Experiments:
[1] = test system: NIH 3T3 Per2-dLuc cells; assay: Real-time monitoring of circadian rhythm, NIH 3T3 Per2-dLuc; type: cell-based; settings: dose dependent
Experimental: Luminescence values were recorded at 32° C. for each 30 minutes with 15 seconds integration time via Synergy H1 luminometer for a week. For LumiCycle, 400×10^3 U2-OS Bmal1-dLuc or NIH3T3 mPer2-dLuc cells were seeded to 35 mm plates and then procedure given above was followed with a change in the last step. Plates were sealed with vacuum grease and placed to LumiCycle. Each plate was recorded continuously every 10 minutes for 70 seconds at 37° C. via photomultiplier tubes. Period and amplitude data were obtained from LumiCycle Analysis software. To detect the effect of FORMULA I in the absence of CRYs, Cry1^−/−/Cry2^−/− mouse embryonic fibroblasts (CRYDKO MEFs) transiently transfected with pGL3-Per2-Luc (luciferase reporter) were used. 3×10^5 CRYDKO cells were seeded in 35 mm clear plates. Next day, cells were transfected with 4000 ng pGL3-Per2-Luc via Fugene6 transfection reagent according to the manufacturer's instruction. In short, 3:1 ratio of Fugene6 in μl against transfected DNA amount in μg was kept in transfections. 72 h after transfection cells were synchronized with DXM for two hours. Then, medium was changed with lumicycle medium having DMSO or molecule, sealed with vacuum grease, and placed to LumiCycle.

[2] = biological target: T1, CRY1 (Mus musculus, UniProt P97784); assay: CRY1 level in mouse liver (whole cell lysate, cytosolic and nuclear fraction); type: in vivo; set-up: from tissue; host or cells: liver of C57BL/6J mice; settings: 25 and 50 mg/kg i.p., 6 h
T1 sequence (P97784 1-606): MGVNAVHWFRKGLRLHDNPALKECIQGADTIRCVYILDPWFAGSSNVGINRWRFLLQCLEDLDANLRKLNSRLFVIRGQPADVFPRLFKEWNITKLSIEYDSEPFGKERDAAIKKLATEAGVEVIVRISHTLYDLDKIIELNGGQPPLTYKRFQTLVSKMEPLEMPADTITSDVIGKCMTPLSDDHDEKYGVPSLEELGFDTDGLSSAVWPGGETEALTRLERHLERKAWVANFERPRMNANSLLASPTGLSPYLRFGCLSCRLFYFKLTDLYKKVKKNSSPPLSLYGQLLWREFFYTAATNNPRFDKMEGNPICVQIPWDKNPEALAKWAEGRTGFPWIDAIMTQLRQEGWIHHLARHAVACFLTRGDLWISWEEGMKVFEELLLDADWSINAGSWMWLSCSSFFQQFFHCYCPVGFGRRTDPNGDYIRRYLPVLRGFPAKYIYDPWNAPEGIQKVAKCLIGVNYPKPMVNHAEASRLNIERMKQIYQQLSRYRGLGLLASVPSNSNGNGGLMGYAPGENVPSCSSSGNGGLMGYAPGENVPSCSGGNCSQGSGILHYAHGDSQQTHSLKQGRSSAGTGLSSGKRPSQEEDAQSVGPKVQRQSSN
Experimental: FIGS. 5A-5G are an illustration of FORMULA I decreased the nuclear CRY1 in mice liver. FORMULA I (25 mg/kg or 50 mg/kg) or vehicle intraperitoneally administered to C57BL/6J mice. 6 h after the treated mice were sacrificed (n=3). […] FIGS. 5A-5B show an effect of FORMULA I in WCL. FIG. 5C-5D show an effect of FORMULA I in cytosolic fraction. FIGS. 5E-5F show an effect of FORMULA I in nuclear fraction of muce liver. […] (Data represent the mean±SEM, n=3 (with duplicates in RT-PCR) *: p<0.05 versus control by student t-test).
Cells were lysed in RIPA buffer (50 mM Tris, 150 mM NaCl, 1% Triton-X, 0.1% SDS) with fresh Protease inhibitor cocktail (PIC). After centrifugation at 13000 rpm for 15 minutes at 4° C., supernatant was used to determine the protein amount using Pierce Protein Assay (Thermo Scientific) according to the manufacturer's instruction. Mice liver samples were homogenized and lysed with Dounce homogenizer and RIPA buffer. After homogenization samples were incubated 10 minutes on ice. After centrifugation 13000 rpm 15 minutes at 4° C. supernatant was used for the whole cell lysate. Subcellular fractionation of liver samples: Liver samples were homogenized with cytosolic lysis buffer (10 mM HEPES pH 7.9, 10 mM KCl, 0.1 mM EDTA, 0.05% NP40, proteasome inhibitor) by pipetting 40 times with a cut tip. Then samples were incubated 10 minutes on ice and centrifuged for 3 minutes at 3000 rpm at 4° C. Supernatant was saved in a new tube, and pellet was processed for the nuclear fraction. Supernatant was centrifuged at 13000 rpm for 3 minutes at 4° C. where new supernatant saved as the cytosolic fraction. […] ECL buffer system (Advansta WesternBright) was used to visualize HRP chemi-luminescence via BioRad ChemiDoc Touch visualizer. […]
Since CRYs are stabilized and degraded differently in cytosolic and nuclear compartments, we further analyzed the level of CRY1 in the cytosolic and nuclear fraction of the mouse liver. […]

Structure (SMILES): Cc1c(C(=O)N2CCc3ccccc32)oc2ccc3c(c12)C(=O)CC(C)(c1ccc(Cl)cc1)O3 (stereo not shown) [FORMULA I, 11-(4-chlorophenyl)-4-(2,3-dihydro-1H-indole-1-carbonyl)-3,11-dimethyl-5,10,dioxatricyclo[7.4.0.0,2,6,]trideca-1,3,6,8-tetraen-13-one]
- effect on circadian rhythm [1]: exhibited similar phenotype
- CRY1 level in cytosolic fraction of liver [2]: not statistically significant compared to controls; also recorded: slightly decreased the CRY1 levels
- CRY1 level in nuclear fraction of liver [2]: significantly low compared to controls in dose dependent manner; also recorded: decreased the nuclear CRY1 level significantly; also recorded: selectively decrease CRY1 level in the nucleus
- CRY1 level in whole cell lysate of liver [2]: slight decrease in CRY1 levels; also recorded: slightly decreased the CRY1 levels
